# According to PubChem BioAssay AID1259407 (Chemical Carcinogenesis Research Information System (CCRIS), 2018):
# Calls of active or inactive are those of the source. The rule behind the calls is not given here.
# Tested on: CCRIS mutagenicity, Ames/micronucleus/aberration tests
# Experiment: CCRIS mutagenicity studies
# [1] = Test System: AMES SALMONELLA TYPHIMURIUM, Strain/Indicator: TA100, Metabolic Activation: NONE, Method: STANDARD PLATE
structure (smiles),measurement,setting,value
CS(=O)(=O)O,mutagenic call,[1],inactive; negative
same,mutagenic call,"Test System: AMES SALMONELLA TYPHIMURIUM, Strain/Indicator: TA100, Metabolic Activation: RAT, LIVER, S-9, AROCLOR 1254 (10%), Method: STANDARD PLATE",inactive; negative
same,mutagenic call,"Test System: AMES SALMONELLA TYPHIMURIUM, Strain/Indicator: TA1535, Metabolic Activation: NONE, Method: STANDARD PLATE",inactive; negative
same,mutagenic call,"Test System: AMES SALMONELLA TYPHIMURIUM, Strain/Indicator: TA1535, Metabolic Activation: RAT, LIVER, S-9, AROCLOR 1254 (10%), Method: STANDARD PLATE",inactive; negative
CN(C)/N=N/c1nc[nH]c1C(N)=O,mutagenic call,"Test System: AMES SALMONELLA TYPHIMURIUM, Strain/Indicator: G46, Metabolic Activation: NONE, Method: STANDARD PLATE",inactive; negative
same,mutagenic call,"Test System: AMES SALMONELLA TYPHIMURIUM, Strain/Indicator: G46, Metabolic Activation: RAT, LIVER, S-9, PHENOBARBITAL, Method: STANDARD PLATE",active; positive
same,mutagenic call,"Test System: AMES SALMONELLA TYPHIMURIUM, Strain/Indicator: TA92, Metabolic Activation: NONE, Method: STANDARD PLATE",active; positive
same,mutagenic call,"Test System: AMES SALMONELLA TYPHIMURIUM, Strain/Indicator: TA92, Metabolic Activation: RAT, LIVER, S-9, PHENOBARBITAL, Method: STANDARD PLATE",active; positive
same,mutagenic call,"Test System: AMES SALMONELLA TYPHIMURIUM, Strain/Indicator: TA97, Metabolic Activation: HAMSTER, LIVER, S-9, AROCLOR 1254 (10%), Method: PREINCUBATION",active; positive
same,mutagenic call,"Test System: AMES SALMONELLA TYPHIMURIUM, Strain/Indicator: TA97, Metabolic Activation: NONE, Method: PREINCUBATION",active; positive
same,mutagenic call,"Test System: AMES SALMONELLA TYPHIMURIUM, Strain/Indicator: TA97, Metabolic Activation: RAT, LIVER, S-9, AROCLOR 1254 (10%), Method: PREINCUBATION",active; positive
same,mutagenic call,"Test System: AMES SALMONELLA TYPHIMURIUM, Strain/Indicator: TA98, Metabolic Activation: HAMSTER, LIVER, S-9, AROCLOR 1254 (10%), Method: PREINCUBATION",active; positive
same,mutagenic call,"Test System: AMES SALMONELLA TYPHIMURIUM, Strain/Indicator: TA98, Metabolic Activation: RAT, LIVER, S-9, AROCLOR 1254 (10%), Method: PREINCUBATION",active; positive
same,mutagenic call,"Test System: AMES SALMONELLA TYPHIMURIUM, Strain/Indicator: TA98, Metabolic Activation: S-9, Method: PREINCUBATION",inactive; negative
same,mutagenic call,"Test System: AMES SALMONELLA TYPHIMURIUM, Strain/Indicator: TA100, Metabolic Activation: HAMSTER, LIVER, S-9, AROCLOR 1254 (10%), Method: PREINCUBATION",active; positive
same,mutagenic call,[1],active; positive
same,mutagenic call,"Test System: AMES SALMONELLA TYPHIMURIUM, Strain/Indicator: TA100, Metabolic Activation: RAT, LIVER, S-9, AROCLOR 1254 (10%), Method: PREINCUBATION",active; positive
same,mutagenic call,"Test System: AMES SALMONELLA TYPHIMURIUM, Strain/Indicator: TA100, Metabolic Activation: RAT, LIVER, S-9, PHENOBARBITAL, Method: STANDARD PLATE",active; positive
same,mutagenic call,"Test System: AMES SALMONELLA TYPHIMURIUM, Strain/Indicator: TA100, Metabolic Activation: S-9, Method: PREINCUBATION",inactive; negative
same,mutagenic call,"Test System: AMES SALMONELLA TYPHIMURIUM, Strain/Indicator: TA1535, Metabolic Activation: HAMSTER, LIVER, S-9, AROCLOR 1254 (10%), Method: PREINCUBATION",active; positive
same,mutagenic call,"Test System: AMES SALMONELLA TYPHIMURIUM, Strain/Indicator: TA1535, Metabolic Activation: NONE, Method: PREINCUBATION",inactive; negative
same,mutagenic call,"Test System: AMES SALMONELLA TYPHIMURIUM, Strain/Indicator: TA1535, Metabolic Activation: RAT, LIVER, S-9, AROCLOR 1254 (10%), Method: PREINCUBATION",active; positive
same,mutagenic call,"Test System: E. COLI, Strain/Indicator: TM6, Metabolic Activation: NONE, Method: STANDARD PLATE",active; positive
same,mutagenic call,"Test System: E. COLI, Strain/Indicator: TM6, Metabolic Activation: RAT, LIVER, S-9, PHENOBARBITAL, Method: STANDARD PLATE",active; positive
same,mutagenic call,"Test System: E. COLI, Strain/Indicator: TM9, Metabolic Activation: NONE, Method: STANDARD PLATE",active; positive
same,mutagenic call,"Test System: E. COLI, Strain/Indicator: TM9, Metabolic Activation: RAT, LIVER, S-9, PHENOBARBITAL, Method: STANDARD PLATE",active; positive
same,mutagenic call,"Test System: E. COLI, Strain/Indicator: WP2, Metabolic Activation: NONE, Method: STANDARD PLATE",active; positive
same,mutagenic call,"Test System: E. COLI, Strain/Indicator: WP2, Metabolic Activation: RAT, LIVER, S-9, PHENOBARBITAL, Method: STANDARD PLATE",active; positive
same,mutagenic call,"Test System: E. COLI, Strain/Indicator: WP2 UVRA, Metabolic Activation: NONE, Method: STANDARD PLATE",active; positive
same,mutagenic call,"Test System: E. COLI, Strain/Indicator: WP2 UVRA, Metabolic Activation: RAT, LIVER, S-9, PHENOBARBITAL, Method: STANDARD PLATE",active; positive
